PMC9682871 (Antiviral Research, 2022)

What was measured:
[1] = test system: pseudovirus presenting the spike of MERS-CoV; assay: organism not typed; assay type: cell-based
MERS-CoV [2] = assay type: cell-based
HCoV-229E = assay type: cell-based
HCoV-OC43 = assay type: cell-based
SARS-CoV = assay type: cell-based
MERS-CoV [3] = assay type: cell-based; remark: listed apart in the source
SARS-CoV-2 [4] = assay type: cell-based
A549 cells [5] = assay type: cell-based; details: 10 μM, 12 h
A549 cells [6] = assay type: cell-based; details: 10 μM, 12 h; remark: listed apart in the source
SARS-CoV-2 [7] = details: hamster, in vivo

For `CCCCc1oc2ccccc2c1C(=O)c1cc(I)c(OCCN(CC)CC)c(I)c1` [amiodarone], the “pseudovirus infection / luciferase signal” value [1] was “outstanding antiviral activity”, the “inhibition by time of addition” value (MERS-CoV [2]) was “strongly inhibited the viral infection when added at an early time point” and the “efficacy against HCoV-229E” value (HCoV-229E) was “showed efficacy”. The “efficacy against HCoV-OC43” value (HCoV-OC43) was “showed efficacy” and the “potency against SARS-CoV” value (SARS-CoV) was “strong potency”.
`CCN(CC)CCCC(C)Nc1ccnc2cc(Cl)ccc12` (centres unmarked) [chloroquine] was tested, and the “MERS-CoV infection assay, immunofluorescence” value (MERS-CoV [3]) was “quenched in a concentration-dependent manner” and the “inhibition by time of addition” value (MERS-CoV [2]) was “stage-selective activity”.
In the case of `Cc1cccc(C)c1OCC(=O)N[C@@H](Cc1ccccc1)[C@@H](O)C[C@H](Cc1ccccc1)NC(=O)[C@H](C(C)C)N1CCCNC1=O` [lopinavir], the “MERS-CoV infection assay, immunofluorescence” value (MERS-CoV [3]) is reported as “quenched in a concentration-dependent manner” and the “inhibition by time of addition” value (MERS-CoV [2]) is reported as “showed efficacy when added at a relatively later stage of infection”.
For `O=C(c1ccc(OCCN2CCCCC2)cc1)c1c(-c2ccc(O)cc2)sc2cc(O)ccc12` [raloxifene], the EC50 ([1]; Huh-7, read-out: Pseudovirus (EC50, μM)) was 0.2 µM, the “inhibition by time of addition” value (MERS-CoV [2]) was “more potent when added at the earlier stages” and the “efficacy against HCoV-229E” value (HCoV-229E) was “effective”. For the same compound, the “efficacy against HCoV-OC43” value (HCoV-OC43) was “effective”, the “potency against SARS-CoV” value (SARS-CoV) was “strong potency” and the “inhibition of SARS-CoV-2 infection by viral RNA” value (SARS-CoV-2 [4]) was “strong potency”. The “total cellular cholesterol” value (A549 cells [5]) was “marginal elevation”, the “CH25H gene expression” value (A549 cells [6]) was “do not show alteration” and the “SQLE expression” value (A549 cells [6]) was “significantly enhanced”. For the same compound, the “cytotoxic effects in the pseudovirus assay” value (Huh-7 cells) was “no significant cytotoxic effects” and the “activity level or survival rate” value (SARS-CoV-2 [7]) was “no significant changes”.
